Source: patent US8680052B1, “Methods of treating, reducing the incidence of, and/or preventing ischemic events” (The Medicines Company, priority 2013, dated 2014)
Where two headings read alike, the source gives them in different places.

Tested on: patients with acute coronary syndromes undergoing PCI
Conditions: for All-cause mortality OR (95% CI) / IDR OR (95% CI) / MI OR (95% CI) / Mortality/MI/IDR OR (95% CI) / Mortality/Q-wave MI/IDR OR (95% CI) / Mortality/Q-wave MI/Stent thrombosis OR (95% CI) / Q-wave MI OR (95% CI) / Stent thrombosis OR (95% CI): Cangrelor vs Clopidogrel; for Angiographic complications (site reported): Abrupt vessel closure / Angiographic complications (site reported): Acute stent thrombosis / Angiographic complications (site reported): Need for urgent CABG / Angiographic complications (site reported): New thrombus or suspected thrombus / Angiographic complications (site reported): Threatened abrupt closure / Angiographic complications (site reported): Unsuccessful procedure: index PCI
Procedure: Patients were eligible for enrollment if they had stable angina, unstable angina, or non-ST-segment elevation (NSTE) MI with obstructive coronary artery disease and were scheduled to undergo PCI.
The infusion began within 30 minutes prior to PCI and continued for at least 2 hours or until the conclusion of the index procedure, whichever was longer. At the treating physician's discretion, the infusion could be continued for 4 hours.
All patients received aspirin 75-325 mg per local site standards. Adjunctive anticoagulants (unfractionated heparin, low molecular weight heparin, bivalirudin, or fondaparinux) and the procedural use of glycoprotein IIb/IIIa inhibitors were determined by the treating physician.
The primary efficacy endpoint was the 48-hour composite of all-cause mortality, MI, or ischemia-driven revascularization. Prespecified secondary efficacy endpoints included the composite of mortality or MI at 48 hours and 30 days; the composite of mortality, MI, or ischemia-driven revascularization at 30 days; the components of the composite endpoints at 48 hours and 30 days; stroke at 48 hours; abrupt closure, threatened abrupt closure, need for urgent coronary artery bypass grafting, or unsuccessful procedure during the index PCI; acute (24 hours) and 48 hours stent thrombosis; and all-cause mortality at 6 months and 1 year.
Rates of MI and ischemia-driven revascularization up to 30 days following the index procedure were assessed. Ischemia-driven revascularization was defined as symptoms of myocardial ischemia leading to urgent (within 24 hours of the last episode of ischemia) revascularization, which must have occurred after the index procedure concluded (i.e., guidewire removal). New electrocardiographic changes, acute pulmonary edema, ventricular arrhythmias, or hemodynamic instability could also constitute evidence of ischemia.
MI was defined by a new Q wave (duration >0.03 seconds) in two contiguous electrocardiographic leads or elevations in creatine kinase (CK) and CK-MB, including a rise of CK-MB≧3 times the local upper limit or normal and, when biomarkers were elevated prior to PCI, an additional 50% above baseline. One baseline troponin measurement was required for patients undergoing urgent PCI. Measurements of CK-MB were obtained at 2, 10, 17, and 24 hours post-PCI.
The primary efficacy analysis was to be determined in the modified intent-to-treat (mITT) population, defined as all randomized patients (excluding STEMI cohort) who received at least one dose of study drug and underwent the index PCI. The safety population consisted of all randomized patients who received any study drug. Patients in the safety analyses were assigned to a treatment arm based on treatment received, not as randomized.

CSCCNc1nc(SCCC(F)(F)F)nc2c1ncn2[C@@H]1O[C@H](COP(=O)(O)OP(=O)(O)C(Cl)(Cl)P(=O)(O)O)[C@@H](O)[C@H]1O [Cangrelor, cangrelor]
Q-wave MI (30 days, MITT Without STEMI): 7 (0.2) no. (%) | Stent thrombosis (30 days, MITT Without STEMI): 20 (0.5) no. (%) | All-cause mortality OR (95% CI) (30 days, MITT Without STEMI): 1.177 (0.704, 1.967) | IDR OR (95% CI) (30 days, MITT Without STEMI): 0.837 (0.559, 1.254) | MI OR (95% CI) (30 days, MITT Without STEMI): 1.072 (0.905, 1.272) | Mortality/MI/IDR OR (95% CI) (30 days, MITT Without STEMI): 1.044 (0.891, 1.224) | Mortality/Q-wave MI/IDR OR (95% CI) (30 days, MITT Without STEMI): 0.930 (0.679, 1.273) | Mortality/Q-wave MI/Stent thrombosis OR (95% CI) (30 days, MITT Without STEMI): 1.030 (0.702, 1.511) | Q-wave MI OR (95% CI) (30 days, MITT Without STEMI): 0.462 (0.188, 1.134) | Stent thrombosis OR (95% CI) (30 days, MITT Without STEMI): 0.991 (0.533, 1.846) | All-cause mortality OR (95% CI) (30 days, MITT): 1.046 (0.670, 1.635) | IDR OR (95% CI) (30 days, MITT): 0.902 (0.634, 1.283) | MI OR (95% CI) (30 days, MITT): 1.078 (0.914, 1.271) | Mortality/MI/IDR OR (95% CI) (30 days, MITT): 1.042 (0.895, 1.211) | Mortality/Q-wave MI/IDR OR (95% CI) (30 days, MITT): 0.927 (0.703, 1.222) | Mortality/Q-wave MI/Stent thrombosis OR (95% CI) (30 days, MITT): 0.924 (0.663, 1.290) | Q-wave MI OR (95% CI) (30 days, MITT): 0.595 (0.260, 1.362) | Stent thrombosis OR (95% CI) (30 days, MITT): 0.894 (0.530, 1.506) | All-cause mortality (30 days, Safety population): 40 (0.9) no. (%) | IDR (30 days, Safety population): 60 (1.4) no. (%) | MI (30 days, Safety population): 318 (7.4) no. (%) | Mortality/MI/IDR (30 days, Safety population): 379 (8.8) no. (%) | Mortality/Q-wave MI/IDR (30 days, Safety population): 100 (2.3) no. (%) | Mortality/Q-wave MI/Stent thrombosis (30 days, Safety population): 68 (1.6) no. (%) | Q-wave MI (30 days, Safety population): 9 (0.2) no. (%) | Stent thrombosis (30 days, Safety population): 27 (0.6) no. (%) | All-cause mortality OR (95% CI) (30 days, Safety population): 0.974 (0.629, 1.508) | IDR OR (95% CI) (30 days, Safety population): 0.893 (0.628, 1.268) | MI OR (95% CI) (30 days, Safety population): 1.090 (0.925, 1.285) | Mortality/MI/IDR OR (95% CI) (30 days, Safety population): 1.040 (0.895, 1.209) | Mortality/Q-wave MI/IDR OR (95% CI) (30 days, Safety population): 0.897 (0.682, 1.179) | Mortality/Q-wave MI/Stent thrombosis OR (95% CI) (30 days, Safety population): 0.892 (0.641, 1.240) | Q-wave MI OR (95% CI) (30 days, Safety population): 0.598 (0.262, 1.368) | Stent thrombosis OR (95% CI) (30 days, Safety population): 0.898 (0.533, 1.513) | Angiographic complications (site reported): Abrupt vessel closure (ITT): 24 (0.6) | Angiographic complications (site reported): Acute stent thrombosis (ITT): 2 (0.0) | Angiographic complications (site reported): Need for urgent CABG (ITT): 10 (0.2) | Angiographic complications (site reported): New thrombus or suspected thrombus (ITT): 17 (0.4) | Angiographic complications (site reported): Threatened abrupt closure (ITT): 13 (0.3) | Angiographic complications (site reported): Unsuccessful procedure (ITT): 90 (2.1) | Angiographic complications (site reported): Abrupt vessel closure (ITT With STEMI): 4 (0.9) | Angiographic complications (site reported): Acute stent thrombosis (ITT With STEMI): 0 (0.0) | Angiographic complications (site reported): Need for urgent CABG (ITT With STEMI): 2 (0.4) | Angiographic complications (site reported): New thrombus or suspected thrombus (ITT With STEMI): 1 (0.2) | Angiographic complications (site reported): Threatened abrupt closure (ITT With STEMI): 4 (0.9) | Angiographic complications (site reported): Unsuccessful procedure (ITT With STEMI): 9 (2.0) | Angiographic complications (site reported): Abrupt vessel closure (ITT Without STEMI): 20 (0.5) | Angiographic complications (site reported): Acute stent thrombosis (ITT Without STEMI): 2 (0.1) | Angiographic complications (site reported): Need for urgent CABG (ITT Without STEMI): 8 (0.2) | Angiographic complications (site reported): New thrombus or suspected thrombus (ITT Without STEMI): 16 (0.4) | Angiographic complications (site reported): Threatened abrupt closure (ITT Without STEMI): 9 (0.2) | Angiographic complications (site reported): Unsuccessful procedure (ITT Without STEMI): 81 (2.1) | Angiographic complications (site reported): Abrupt vessel closure (MITT): 24 (0.6) | Angiographic complications (site reported): Acute stent thrombosis (MITT): 2 (0.0) | Angiographic complications (site reported): Need for urgent CABG (MITT): 8 (0.2) | Angiographic complications (site reported): New thrombus or suspected thrombus (MITT): 17 (0.4) | Angiographic complications (site reported): Threatened abrupt closure (MITT): 13 (0.3) | Angiographic complications (site reported): Unsuccessful procedure (MITT): 90 (2.1) | Angiographic complications (site reported): Abrupt vessel closure (MITT NSTEMI): 20 (0.5) | Angiographic complications (site reported): Acute stent thrombosis (MITT NSTEMI): 2 (0.1) | Angiographic complications (site reported): Need for urgent CABG (MITT NSTEMI): 7 (0.2) | Angiographic complications (site reported): New thrombus or suspected thrombus (MITT NSTEMI): 16 (0.4) | Angiographic complications (site reported): Threatened abrupt closure (MITT NSTEMI): 9 (0.2) | Angiographic complications (site reported): Unsuccessful procedure (MITT NSTEMI): 81 (2.1) | Angiographic complications (site reported): Abrupt vessel closure (Safety population): 24 (0.6) | Angiographic complications (site reported): Acute stent thrombosis (Safety population): 2 (0.0) | Angiographic complications (site reported): Need for urgent CABG (Safety population): 8 (0.2) | Angiographic complications (site reported): New thrombus or suspected thrombus (Safety population): 17 (0.4) | Angiographic complications (site reported): Threatened abrupt closure (Safety population): 13 (0.3) | Angiographic complications (site reported): Unsuccessful procedure (Safety population): 90 (2.1)
